We go through 1 compound from paper PMC4848466, “Insights into the activation mechanism of class I HDAC complexes by inositol phosphates” (Nature Communications, 2016).

Structures are written as SMILES.

Common to all, as to assay type: biochemical
Experiment [1] concerns the target T1, HDAC3:SMRT complex (Homo sapiens, UniProt O15379+Q9Y618).
T1 construct: Full-length HDAC3, and residues 350–480 of SMRT were cloned into pcDNA3 vectors; residues 350–480 of SMRT were cloned into pcDNA3 vectors; FLAG tag with TEV protease cleavage site (cleaved yes); made in house; host or cells: HEK293F cells (co-transfection, pcDNA3)
Nature of the experiment: Activation of HDAC3:SMRT deacetylase activity by inositol phosphates (BOC-Lys-AMC assay). Here is the method: (§1) To understand the stereochemical basis underlying the activation of HDAC3 by inositol phosphates we investigated the ability of a range of inositol phosphates and derivatives to enhance the activity of HDAC3 in deacetylase assays. To achieve this we used an assay based on the complex of HDAC3 with an extended SMRT construct which is stable in the absence of inositol phosphate.
(§2) HDAC activity of the protein complex was measured using an HDAC assay with a BOC-Lys-AMC substrate. 50 nM HDAC3:SMRT or 50 nM HDAC1:MTA1 was incubated with 100 μM BOC-Lys-AMC substrate in a final volume of 50 μl buffer A (50 mM Tris pH 7.5, 50 mM NaCl, 5% Glycerol), in a black 96-well plate for 30 min at 37 °C.
(§3) To test the ability of inositol phosphates and derivatives to activate the complex, 50 nM HDAC3:SMRT (which had been stripped of its endogenous co-purified inositol phosphate) or 50 nM HDAC1:MTA1 was incubated with inositol phosphate or analogue for 30 min at 37 °C before the HDAC activity was measured. All measurements were performed in triplicate and data analysed using GraphPad Prism (version 6.0, GraphPad Software, Inc).

Experiment [2] deals with T2, HDAC3:SMRT complex (Homo sapiens, UniProt O15379).
T2 construct: Full-length HDAC3, and residues 350–480 of SMRT were cloned into pcDNA3 vectors; residues 350–480 of SMRT were cloned into pcDNA3 vectors; FLAG tag with TEV protease cleavage site (cleaved yes); made in house; host or cells: HEK293F cells (co-transfection, pcDNA3)
T2 sequence (O15379 whole entry, the tested form may be a part): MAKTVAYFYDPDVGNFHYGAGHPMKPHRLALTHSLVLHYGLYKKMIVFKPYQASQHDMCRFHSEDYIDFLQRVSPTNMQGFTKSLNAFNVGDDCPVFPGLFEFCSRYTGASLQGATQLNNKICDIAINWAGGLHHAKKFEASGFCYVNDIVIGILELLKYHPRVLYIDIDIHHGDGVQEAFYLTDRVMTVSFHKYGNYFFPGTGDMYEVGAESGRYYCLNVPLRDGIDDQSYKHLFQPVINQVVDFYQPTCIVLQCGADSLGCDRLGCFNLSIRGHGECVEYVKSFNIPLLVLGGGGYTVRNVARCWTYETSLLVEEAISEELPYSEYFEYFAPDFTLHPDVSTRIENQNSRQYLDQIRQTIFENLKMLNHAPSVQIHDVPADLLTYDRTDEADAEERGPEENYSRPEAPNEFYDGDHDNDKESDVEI
T2 sequence (Q9Y618 350-480, further chain): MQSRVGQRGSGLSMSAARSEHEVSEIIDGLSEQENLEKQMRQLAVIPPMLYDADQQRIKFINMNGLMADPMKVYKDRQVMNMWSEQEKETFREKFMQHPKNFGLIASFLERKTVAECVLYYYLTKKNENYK
The experiment is described as above. The following applies: BOC-Lys-AMC assay; one-site binding fit of HDAC activity vs inositol phosphate concentration; read-out: Kdapp (apparent Kd from activation titration). How it is done:
as §1, §2, §3

For a further experiment, the target named is T3, D99A HDAC1 mutant (Homo sapiens, UniProt Q13330+Q13547, D99A).
T3 construct: Full-length HDAC1 and residues 162–354 of MTA1 were cloned into pcDNA3 vectors; residues 162–354 of MTA1 were cloned into pcDNA3 vectors; FLAG tag with TEV protease cleavage site (cleaved yes); made in house
T3 sequence (Q13547 whole entry D99A, the tested form may be a part): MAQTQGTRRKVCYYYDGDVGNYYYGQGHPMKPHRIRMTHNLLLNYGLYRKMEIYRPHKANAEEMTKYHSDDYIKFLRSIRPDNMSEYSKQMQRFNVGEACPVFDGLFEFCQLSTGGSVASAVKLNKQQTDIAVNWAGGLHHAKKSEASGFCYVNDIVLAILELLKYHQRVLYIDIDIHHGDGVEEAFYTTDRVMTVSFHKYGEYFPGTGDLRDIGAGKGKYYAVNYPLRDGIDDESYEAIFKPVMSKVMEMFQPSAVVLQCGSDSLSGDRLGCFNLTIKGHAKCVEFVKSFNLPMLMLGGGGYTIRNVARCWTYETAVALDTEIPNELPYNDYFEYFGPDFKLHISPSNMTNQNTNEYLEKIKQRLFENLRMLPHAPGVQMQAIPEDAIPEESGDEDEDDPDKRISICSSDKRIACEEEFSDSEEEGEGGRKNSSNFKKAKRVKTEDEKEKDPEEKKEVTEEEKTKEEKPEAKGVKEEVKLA
T3 sequence (Q13330 162-354): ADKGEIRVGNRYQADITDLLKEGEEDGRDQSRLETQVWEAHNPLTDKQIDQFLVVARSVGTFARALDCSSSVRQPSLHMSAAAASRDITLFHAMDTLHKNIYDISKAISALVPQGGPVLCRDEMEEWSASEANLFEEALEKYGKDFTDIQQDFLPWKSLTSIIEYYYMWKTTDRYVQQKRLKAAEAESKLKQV
Nature of the experiment: Deacetylase activity of D99A HDAC1 mutant (electrophoretic mobility shift assay, caliper platform). The settings on record: addition of InsP6. How it is done:
Figure 5 Inhibition of HDAC1:MTA1 by a novel peptide-based inhibitor. (a) Inhibition curve of HDAC1:MTA1 by the histone H4 peptide H4K16Hx. (b)The position of H4K16Hx (pink) bound to the active site of HDAC1 (purple). The sidechain of HDAC1 residue D99 undergoes a significant rearrangement (indicated by arrow) to coordinate binding of the peptide (apo-HDAC1 shown in grey). […] HDAC assays were performed using an electrophoretic mobility shift assay on the caliper platform. Error bars indicate±s.e.m. (n=3).

For the next experiment, the target named is T4, HDAC1:MTA1 complex (Homo sapiens, UniProt Q13330+Q13547).
T4 construct: Full-length HDAC1 and residues 162–354 of MTA1 were cloned into pcDNA3 vectors; residues 162–354 of MTA1 were cloned into pcDNA3 vectors; FLAG tag with TEV protease cleavage site (cleaved yes); made in house; host or cells: HEK293F cells (co-transfection, pcDNA3)
T4 sequence (Q13547 whole entry, the tested form may be a part): as the sequence (Q13547 whole entry D99A, the tested form may be a part) above, with A99D counted along it
T4 sequence (Q13330 162-354): as the sequence (Q13330 162-354) above
Kind of experiment: Activation of HDAC1:MTA1 deacetylase activity by inositol phosphates (BOC-Lys-AMC assay). Here is the method:
as §2, §3

In a further experiment the target is HDAC3:SMRT (Homo sapiens, UniProt O15379+Q9Y618). Nature of the experiment: Michaelis-Menten enzyme kinetics on Caliper EZ Reader with H4K16ac peptide. Also noted: Full-length HDAC3, and residues 350–480 of SMRT were cloned into pcDNA3 vectors; residues 350–480 of SMRT were cloned into pcDNA3 vectors; FLAG tag with TEV protease cleavage site (cleaved yes); made in house; host or cells: HEK293F cells (co-transfection, pcDNA3). The following applies: H4 12–18K16ac peptide; in the presence of the inositol phosphate. An excerpt:
(§4) To explore further the differences between the two complexes we established a more physiological, real-time kinetic assay using substrates based on the tails of histones H4 and H3. The peptides tested were; H4 12–18(K16ac), H3 23–29(K27ac) and H3 6–12(K9ac). […] HDAC3:SMRT is most catalytically active against H3 23–29(K27ac) (Supplementary Fig. 7), whereas HDAC1:MTA1 is most catalytically active against H4 12–18(K16ac) (Fig. 4d). In both cases an approximate 3-fold greater kcat is observed for the preferred versus non-preferred substrate, in the absence of inositol phosphate. […] The net effect of both inositol phosphates tested was between a two and fivefold increase in catalytic efficiency (kcat/Km) (Fig. 4c,d, Supplementary Fig. 7).
(§5) Michaelis–Menten kinetics were determined using a HDAC assay on the Caliper EZ Reader II system (Caliper Life Sciences, http://www.caliperls.com). To assess the effect of inositol phosphate, 20 nM HDAC3:SMRT or 80 nM HDAC1:MTA1 were pre-mixed with InsP6 before dilution and addition of fluorescein-labelled H4K16Ac substrate. Reactions were carried out in duplicate in 30 μl reaction volumes, performed at room temperature in 50 mM Tris pH 7.5, 50 mM NaCl, 5% glycerol. Data was analysed using GraphPad Prism (version 6.0).

The next experiment deals with T5, HDAC1:MTA1 (Homo sapiens, UniProt Q13330+Q13547).
T5 construct: Full-length HDAC1 and residues 162–354 of MTA1 were cloned into pcDNA3 vectors; residues 162–354 of MTA1 were cloned into pcDNA3 vectors; FLAG tag with TEV protease cleavage site (cleaved yes); made in house; host or cells: HEK293F cells (co-transfection, pcDNA3)
T5 sequence (Q13547 whole entry, the tested form may be a part): as the sequence (Q13547 whole entry D99A, the tested form may be a part) above, with A99D counted along it
T5 sequence (Q13330 162-354): as the sequence (Q13330 162-354) above
Described as above. The settings on record: H4 12–18K16ac peptide; in the presence of the inositol phosphate.
Excerpt: as §4, §5

T1 sequence (O15379 whole entry, the tested form may be a part): as the sequence (O15379 whole entry, the tested form may be a part) above
T1 sequence (Q9Y618 350-480): as the sequence (Q9Y618 350-480, further chain) above
Sequence of HDAC3:SMRT (O15379 whole entry, the tested form may be a part): as the sequence (O15379 whole entry, the tested form may be a part) above
Sequence of HDAC3:SMRT (Q9Y618 350-480): as the sequence (Q9Y618 350-480, further chain) above

Consider `O=P(O)(O)O[C@H]1[C@H](OP(=O)(O)O)[C@@H](OP(=O)(O)O)[C@H](OP(=O)(O)O)[C@@H](OP(=O)(O)O)[C@H]1OP(=O)(O)O` [InsP6, inositol hexaphosphate], for which, on HDAC3:SMRT complex [1] (BOC-Lys-AMC assay, titration / maximal activation), the “HDAC3 activation relative to maximal Ins(1,4,5,6)P4-stimulated activity” value is “same degree as Ins(1,4,5,6)P4”. In addition, the “increase in apparent affinity compared with Ins(1,4,5,6)P4” value on HDAC3:SMRT complex [1] (ratio of apparent Kd values) worked out at 16 fold. The results for the Kd at HDAC3:SMRT complex [2] and at HDAC1:MTA1 complex (read-out: Kdapp (apparent Kd from activation titration)) were 600 nM and 4000 nM, respectively. Further, the “rescue of deacetylase activity of D99A mutant” value at D99A HDAC1 mutant was “activity is not rescued”. On HDAC1:MTA1 complex, the “activation of HDAC1:MTA1 complex” value is “can be activated”. The kcat (usually the maximal rate divided by the concentration of active sites) is 2.59 s⁻¹ on HDAC3:SMRT and 1.01 s⁻¹ on HDAC1:MTA1.
